# Experimental data from patent US11155517B2, “4-substituted phenylamine derivatives and their use to protect crops by fighting undesired phytopathogenic micoorganisms” (PI INDUSTRIES LTD., priority 2016, dated 2021).
# Assays:
# Pyricularia oryzae = test: microbe, parasite or virus in culture; assay type: cell-based; settings: 168 h, read-out: % control compared to the untreated check (radial growth)
# Rhizoctonia solani = Rhizoctonia solani (rice sheath blight/potato black scurf) in vitro test, radial growth on Potato Dextrose Agar; assay type: cell-based; settings: 168 h, 300 ppm, seven days, 25° C., read-out: % control compared to the untreated check (radial growth)
# Botrytis cinerea = Botrytis cinerea (gray mold) in vitro test, radial growth on Potato Dextrose Agar; assay type: cell-based; settings: 168 h, 300 ppm, seven days, 22° C., read-out: % (control) compared to the untreated check (radial growth)
# Alternaria solani = Alternaria solani (early blight of tomato/potato) in vitro test, radial growth on Potato Dextrose Agar; assay type: cell-based; settings: 168 h, 300 ppm, seven days, 25° C., read-out: % control compared to the untreated check (radial growth)
# Colletotrichum capsici = Colletotrichum capsici (anthracnose) in vitro test, radial growth on Potato Dextrose Agar; assay type: cell-based; settings: Colletotrichum truncatum, 168 h; 300 ppm; seven days, 25° C.; read-out: % control compared to the untreated check (radial growth)
# Septoria lycopersici = Septoria lycopersici (leaf spot of tomato) in vitro test, radial growth on Potato Dextrose Agar; assay type: cell-based; settings: 168 h, seven days, 25° C., read-out: % control compared to the untreated check (radial growth)
# Fusarium culmorum [1] = test: Fusarium culmorum (foot rot of cereals) in vitro test, radial growth on Potato Dextrose Agar; assay type: cell-based; settings: Fusarium culmorum, 168 h, read-out: % control compared to the untreated check (radial growth)
# Fusarium culmorum [2] = test: Greenhouse Fusarium culmorum test in wheat, preventive; assay type: in vivo; settings: 24 h, read-out: Efficacy (% control), disease severity vs untreated check
# Experimental: Compounds were dissolved in 2% DMSO/Acetone & then mixed with water to calibrated spray volume of 50 ml. This 50 ml spray solution was poured into the spray bottles for further applications.
# To test the preventive activity of compounds, healthy young wheat plants raised in the greenhouse were sprayed with active compound preparation at the stated application rates inside the spray cabinets using hallowcone nozzles. One day after treatment, the plants were inoculated with spore suspension (2% Malt) containing 2×10^6 Fusarium culmorum inoculum. The inoculated plants were then kept in greenhouse chamber at 24° C. temperature and 80-90% relative humidity for disease expression.
# A visual assessment of compound's performance was carried by rating the disease severity (0-100% scale) on treated plants on 3, 7, 10 and 15 days after application. Efficacy (% control) of the compounds was calculated by comparing the disease rating in the treatment with untreated control. The sprayed plants were also assessed for compound's phytotoxic effects by recording symptoms like necrosis, chlorosis and stunting.
# Botrytis cinera = test: Greenhouse Botrytis cinera test in tomato, preventive; assay type: in vivo; settings: 24 h, plants sprayed one day before inoculation, read-out: Efficacy (% control), disease severity vs untreated check
SMILES,inhibition of growth at 300 ppm (Pyricularia oryzae) [%],inhibition of growth at 300 ppm (Rhizoctonia solani) [%],inhibition of growth at 300 ppm (Botrytis cinerea) [%],inhibition of growth at 300 ppm (Alternaria solani) [%],inhibition of growth at 300 ppm (Colletotrichum capsici) [%],inhibition of growth at 300 ppm (Septoria lycopersici) [%],inhibition of growth at 300 ppm (Fusarium culmorum [1]) [%],pest or weed control at 500 ppm (Fusarium culmorum [2]) [%],pest or weed control at 500 ppm (Botrytis cinera) [%]
"CCN(C)C=Nc1cc(C)c(Cc2ccc(F)cc2)cc1C [Compound 57, N-ethyl-N′-(4-(4-fluorobenzyl)-2,5-dimethylphenyl)-N-methylformimidamide]",> 75,> 80,> 80,> 75,> 80,> 70,75,70 to 100,–
"CCN(C)C=Nc1cc(C)c(Cc2ccccc2[N+](=O)[O-])cc1Cl [Compound 75, N′-(2-chloro-5-methyl-4-(2-nitrobenzyl)phenyl)-N-ethyl-N-methylformimidamide]",> 75,> 80,> 80,> 75,> 80,–,75,70 to 100,–
"CCN(C)C=Nc1cc(C)c(Cc2ccc(F)cc2)cc1Cl [Compound 76, N′-(2-chloro-4-(4-fluorobenzyl)-5-methylphenyl)-N-ethyl-N-methylformimidamide]",> 75,> 80,> 80,> 75,> 80,–,75,70 to 100,–
"CCN(C)C=Nc1cc(C)c(Cc2ccc(SC(F)(F)F)cc2)cc1Cl [Compound 77, N′-(2-chloro-5-methyl-4-(4-((trifluoromethyl)thio)benzyl)phenyl)-N-ethyl-N-methylformimidamide]",> 75,> 80,> 80,> 75,–,–,75,70 to 100,–
"Cc1cc(N=CN(C)C(C)C)c(C)cc1Cc1ccccc1F [Compound 81, N′-(4-(2-fluorobenzyl)-2,5-dimethylphenyl)-N-isopropyl-N-methylformimidamide]",> 75,> 80,> 80,> 75,> 80,> 70,75,70 to 100,–
"CCN(C)C=Nc1cc(C)c(Cc2ccc(C(F)(F)F)cc2)cc1Cl [Compound 101, N′-(2-chloro-5-methyl-4-(4-(trifluoromethyl)benzyl)phenyl)-N-ethyl-N-methylformimidamide]",> 75,> 80,> 80,> 75,–,–,–,70 to 100,70 to 100
"CCN(C)C=Nc1cc(C)c(Cc2ccc(Cl)c(C(F)(F)F)c2)cc1Cl [Compound 136, N′-(2-chloro-4-(4-chloro-3-(trifluoromethyl)benzyl)-5-methylphenyl)-N-ethyl-N-methylformimidamide]",> 75,> 80,> 80,> 75,> 80,–,75,70 to 100,–
"CCN(C)C=Nc1cc(C)c(Cc2cc(F)ccc2C)cc1C [Compound 157, N-ethyl-N′-(4-(5-fluoro-2-methylbenzyl)-2,5-dimethylphenyl)-N-methylformimidamide]",> 75,> 80,> 80,> 75,> 80,> 70,75,70 to 100,–
"CCN(C)C=Nc1cc(F)c(Cc2cccc(F)c2)cc1C [Compound 172, N-ethyl-N′-(5-fluoro-4-(3-fluorobenzyl)-2-methylphenyl)-N-methylformimidamide]",> 75,> 80,> 80,> 75,> 80,> 70,75,70 to 100,–
